ChEMBL document CHEMBL4251601 (Eur J Med Chem, 2018)
Activity calls are given as the source filed them. No cut-off for these calls is given here.

Assays:
[1] = Clearance in Sprague-Dawley rat at 2 mg/kg, iv administered as single dose by LC-MS/MS analysis; type: ADME, organism-based; conditions: in vivo
[2] = Oral bioavailability in Sprague-Dawley rat at 5 mg/kg administered as single dose by LC-MS/MS analysis; type: ADME, organism-based; conditions: Sprague-Dawley, in vivo
[3] = molecular target: RAC-beta serine/threonine-protein kinase (Homo sapiens) (UniProt P31751); test: Inhibition of recombinant full length human His-tagged AKT2 expressed in baculovirus expression system at 0.1 uM by TR-FRET assay relative to control
[4] = molecular target: RAC-gamma serine/threonine-protein kinase (Homo sapiens) (UniProt Q9Y243); test: Inhibition of recombinant full length human His-tagged AKT3 expressed in baculovirus expression system at 0.1 uM by TR-FRET assay relative to control
Sequence of RAC-gamma serine/threonine-protein kinase (Homo sapiens) (Q9Y243 whole entry): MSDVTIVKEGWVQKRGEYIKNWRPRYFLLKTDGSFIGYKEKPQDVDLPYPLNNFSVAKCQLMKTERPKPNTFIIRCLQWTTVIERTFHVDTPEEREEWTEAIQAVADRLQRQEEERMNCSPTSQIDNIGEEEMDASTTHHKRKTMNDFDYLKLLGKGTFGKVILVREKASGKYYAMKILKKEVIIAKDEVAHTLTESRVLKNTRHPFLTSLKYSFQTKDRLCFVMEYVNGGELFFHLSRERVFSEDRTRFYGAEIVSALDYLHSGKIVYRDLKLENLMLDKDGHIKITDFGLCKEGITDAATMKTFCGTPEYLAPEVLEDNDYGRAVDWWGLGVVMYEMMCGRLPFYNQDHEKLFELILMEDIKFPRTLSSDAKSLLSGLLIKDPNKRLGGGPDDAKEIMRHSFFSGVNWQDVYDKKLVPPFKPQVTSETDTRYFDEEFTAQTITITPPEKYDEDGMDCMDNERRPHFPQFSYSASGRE

[5] = molecular target: Tyrosine-protein kinase BTK (Homo sapiens) (UniProt Q06187); test: Inhibition of recombinant full length human His-tagged BTK expressed in baculovirus expression system at 0.1 uM by TR-FRET assay relative to control
[6] = molecular target: Serine/threonine-protein kinase Chk2 (Homo sapiens) (UniProt O96017); test: Inhibition of recombinant full length human His-tagged CHEK2 expressed in baculovirus expression system at 0.1 uM by Z'-Lyte assay relative to control
[7] = molecular target: Casein kinase II subunit alpha (Homo sapiens) (UniProt P68400); test: Inhibition of recombinant full length human His-tagged CK2alpha1 expressed in baculovirus expression system at 0.1 uM by Z'-Lyte assay relative to control
[8] = molecular target: Dual specificity tyrosine-phosphorylation-regulated kinase 3 (Homo sapiens) (UniProt O43781); test: Inhibition of recombinant full length human GST-tagged DYRK3 expressed in baculovirus expression system at 0.1 uM by Z'-Lyte assay relative to control
[9] = molecular target: Ephrin type-A receptor 2 (Homo sapiens) (UniProt P29317); test: Inhibition of recombinant human GST-tagged EPHA2 cytoplasmic domain expressed in baculovirus expression system at 0.1 uM by Z'-Lyte assay relative to control
[10] = molecular target: Insulin receptor (Homo sapiens) (UniProt P06213); test: Inhibition of recombinant human GST-tagged INSR cytoplasmic domain expressed in baculovirus expression system at 0.1 uM by Z'-Lyte assay relative to control
[11] = molecular target: Serine/threonine-protein kinase 26 (Homo sapiens) (UniProt Q9P289); test: Inhibition of recombinant human full length GST-tagged MST4 expressed in baculovirus expression system at 0.1 uM by Z'-Lyte assay relative to control
Sequence of Serine/threonine-protein kinase 26 (Homo sapiens) (Q9P289 2-416 limits assumed): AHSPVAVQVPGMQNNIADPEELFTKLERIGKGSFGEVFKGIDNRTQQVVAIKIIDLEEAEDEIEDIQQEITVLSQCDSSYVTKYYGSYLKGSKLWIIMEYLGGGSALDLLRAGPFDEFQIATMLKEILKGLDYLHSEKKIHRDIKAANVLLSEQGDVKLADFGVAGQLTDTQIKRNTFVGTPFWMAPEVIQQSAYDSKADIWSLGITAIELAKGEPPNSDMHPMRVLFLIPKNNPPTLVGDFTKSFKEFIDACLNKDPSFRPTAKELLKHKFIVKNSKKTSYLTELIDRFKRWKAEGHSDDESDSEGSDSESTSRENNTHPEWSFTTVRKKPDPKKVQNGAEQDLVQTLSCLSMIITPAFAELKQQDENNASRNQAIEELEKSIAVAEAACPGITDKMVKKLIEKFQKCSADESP

[12] = molecular target: cAMP-dependent protein kinase catalytic subunit alpha (Homo sapiens) (UniProt P17612); test: Inhibition of recombinant human His-tagged PKA expressed in Escherichia coli at 0.1 uM by Z'-Lyte assay relative to control
[13] = molecular target: Protein kinase C beta type (Homo sapiens) (UniProt P05771); test: Inhibition of PKCbeta2 (unknown origin) at 0.1 uM by Z'-Lyte assay relative to control
[14] = system: Proto-oncogene tyrosine-protein kinase receptor Ret (Homo sapiens), P07949 [V804L]; test: Inhibition of recombinant human GST-tagged RET V804L mutant expressed in baculovirus expression system at 0.1 uM by Z'-Lyte assay relative to control
Sequence of Proto-oncogene tyrosine-protein kinase receptor Ret (Homo sapiens), P07949 [V804L] (P07949 whole entry V804L): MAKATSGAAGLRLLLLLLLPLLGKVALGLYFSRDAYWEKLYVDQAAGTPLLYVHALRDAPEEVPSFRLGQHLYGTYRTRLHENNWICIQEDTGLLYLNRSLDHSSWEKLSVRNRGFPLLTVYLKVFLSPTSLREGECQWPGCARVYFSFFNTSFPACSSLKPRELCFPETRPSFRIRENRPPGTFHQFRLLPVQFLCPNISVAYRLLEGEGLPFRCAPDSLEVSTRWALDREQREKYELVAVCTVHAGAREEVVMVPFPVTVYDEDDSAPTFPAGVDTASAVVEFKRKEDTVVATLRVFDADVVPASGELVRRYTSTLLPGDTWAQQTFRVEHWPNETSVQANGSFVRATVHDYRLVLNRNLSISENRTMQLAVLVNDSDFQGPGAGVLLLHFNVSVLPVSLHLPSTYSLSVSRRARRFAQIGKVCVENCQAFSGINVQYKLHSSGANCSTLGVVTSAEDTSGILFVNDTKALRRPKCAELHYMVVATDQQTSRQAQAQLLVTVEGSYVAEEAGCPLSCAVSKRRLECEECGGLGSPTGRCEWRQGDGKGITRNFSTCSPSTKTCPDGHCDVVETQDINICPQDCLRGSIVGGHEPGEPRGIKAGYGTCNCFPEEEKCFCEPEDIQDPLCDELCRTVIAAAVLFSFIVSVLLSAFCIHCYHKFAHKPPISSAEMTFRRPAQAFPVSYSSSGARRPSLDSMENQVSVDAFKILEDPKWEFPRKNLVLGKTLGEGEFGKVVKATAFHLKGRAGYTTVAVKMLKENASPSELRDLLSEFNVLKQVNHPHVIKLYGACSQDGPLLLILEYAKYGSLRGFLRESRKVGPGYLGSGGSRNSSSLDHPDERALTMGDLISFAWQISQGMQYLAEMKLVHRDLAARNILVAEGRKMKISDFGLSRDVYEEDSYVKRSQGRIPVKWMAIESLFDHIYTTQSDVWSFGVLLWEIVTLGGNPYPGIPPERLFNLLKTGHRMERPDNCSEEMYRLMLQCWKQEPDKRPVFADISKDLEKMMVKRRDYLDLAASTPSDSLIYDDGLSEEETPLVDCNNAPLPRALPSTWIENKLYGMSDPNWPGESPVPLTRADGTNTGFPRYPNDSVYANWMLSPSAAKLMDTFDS

[15] = molecular target: RAC-gamma serine/threonine-protein kinase (Homo sapiens) (UniProt Q9Y243); test: Inhibition of recombinant full length human His-tagged AKT3 expressed in baculovirus expression system at 1 uM by TR-FRET assay relative to control
[16] = molecular target: Serine/threonine-protein kinase MRCK beta (Homo sapiens) (UniProt Q9Y5S2); test: Inhibition of recombinant human His-tagged CDC42 BPB expressed in baculovirus expression system at 1 uM by Z'-Lyte assay relative to control
Sequence of Serine/threonine-protein kinase MRCK beta (Homo sapiens) (Q9Y5S2 whole entry, canonical isoform): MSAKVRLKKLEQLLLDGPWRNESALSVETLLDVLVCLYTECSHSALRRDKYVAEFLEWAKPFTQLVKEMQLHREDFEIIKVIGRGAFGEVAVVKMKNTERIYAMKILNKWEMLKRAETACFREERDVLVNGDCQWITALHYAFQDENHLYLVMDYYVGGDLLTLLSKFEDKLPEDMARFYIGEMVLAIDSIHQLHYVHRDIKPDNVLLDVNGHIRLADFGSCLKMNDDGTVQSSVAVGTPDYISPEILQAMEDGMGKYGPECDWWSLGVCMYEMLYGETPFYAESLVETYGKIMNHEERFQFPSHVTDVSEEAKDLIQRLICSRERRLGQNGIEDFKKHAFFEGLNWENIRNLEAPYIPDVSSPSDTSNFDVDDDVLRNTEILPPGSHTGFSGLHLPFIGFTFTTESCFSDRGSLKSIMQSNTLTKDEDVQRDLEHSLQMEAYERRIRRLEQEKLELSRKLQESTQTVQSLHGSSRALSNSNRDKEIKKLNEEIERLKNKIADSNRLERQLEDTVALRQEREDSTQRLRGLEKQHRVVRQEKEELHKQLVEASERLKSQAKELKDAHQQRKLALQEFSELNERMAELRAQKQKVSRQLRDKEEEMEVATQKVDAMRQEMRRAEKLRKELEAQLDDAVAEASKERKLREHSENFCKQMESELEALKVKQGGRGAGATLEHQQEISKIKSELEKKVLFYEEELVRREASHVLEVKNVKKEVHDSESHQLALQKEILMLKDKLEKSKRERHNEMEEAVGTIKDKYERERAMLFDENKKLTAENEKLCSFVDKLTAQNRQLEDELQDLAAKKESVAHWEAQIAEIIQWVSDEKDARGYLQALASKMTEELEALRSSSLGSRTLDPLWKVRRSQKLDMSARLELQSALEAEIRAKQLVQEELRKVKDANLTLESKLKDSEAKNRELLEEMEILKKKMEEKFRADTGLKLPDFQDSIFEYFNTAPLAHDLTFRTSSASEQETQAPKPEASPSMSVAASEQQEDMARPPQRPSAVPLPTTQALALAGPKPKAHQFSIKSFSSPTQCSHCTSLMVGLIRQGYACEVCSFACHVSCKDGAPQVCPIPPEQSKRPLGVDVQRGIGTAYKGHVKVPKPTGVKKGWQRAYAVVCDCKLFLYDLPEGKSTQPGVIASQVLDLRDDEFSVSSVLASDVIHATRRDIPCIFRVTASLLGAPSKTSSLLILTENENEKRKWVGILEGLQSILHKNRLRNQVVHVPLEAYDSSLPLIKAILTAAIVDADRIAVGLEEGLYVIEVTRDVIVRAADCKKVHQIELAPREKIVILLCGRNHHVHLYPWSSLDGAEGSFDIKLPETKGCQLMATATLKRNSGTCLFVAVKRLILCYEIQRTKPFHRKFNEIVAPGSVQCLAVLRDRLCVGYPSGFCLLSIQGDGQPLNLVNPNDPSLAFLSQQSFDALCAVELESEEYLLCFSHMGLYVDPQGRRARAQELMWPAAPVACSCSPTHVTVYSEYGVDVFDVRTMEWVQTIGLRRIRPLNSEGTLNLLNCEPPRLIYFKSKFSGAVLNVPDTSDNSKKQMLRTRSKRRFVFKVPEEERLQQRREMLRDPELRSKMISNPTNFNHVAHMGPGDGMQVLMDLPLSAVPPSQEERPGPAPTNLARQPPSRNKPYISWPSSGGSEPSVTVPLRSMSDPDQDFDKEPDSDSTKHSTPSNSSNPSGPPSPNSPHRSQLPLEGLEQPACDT

[17] = molecular target: Casein kinase I isoform alpha (Homo sapiens) (UniProt P48729); test: Inhibition of recombinant full length human GST-tagged CK1alpha expressed in baculovirus expression system at 1 uM by Z'-Lyte assay relative to control
[18] = system: Epidermal growth factor receptor (Homo sapiens), P00533 [UNDEFINED MUTATION]; test: Inhibition of recombinant human EGFR d746 to 750 deletion/T790M mutant at 1 uM by TR-FRET assay relative to control
[19] = molecular target: Receptor tyrosine-protein kinase erbB-2 (Homo sapiens) (UniProt P04626); test: Inhibition of recombinant human His-tagged ERBB2 cytoplasmic domain expressed in baculovirus expression system at 1 uM by Z'-Lyte assay relative to control
[20] = molecular target: Mitogen-activated protein kinase 8 (Homo sapiens) (UniProt P45983); test: Inhibition of recombinant human full length His-tagged JNK1 expressed in baculovirus expression system at 1 uM by Z'-Lyte assay relative to control
[21] = molecular target: Serine/threonine-protein kinase PAK 1 (Homo sapiens) (UniProt Q13153); test: Inhibition of recombinant human full length GST-tagged PAK1 expressed in baculovirus expression system at 1 uM by Z'-Lyte assay relative to control
Sequence of Serine/threonine-protein kinase PAK 1 (Homo sapiens) (Q13153 whole entry): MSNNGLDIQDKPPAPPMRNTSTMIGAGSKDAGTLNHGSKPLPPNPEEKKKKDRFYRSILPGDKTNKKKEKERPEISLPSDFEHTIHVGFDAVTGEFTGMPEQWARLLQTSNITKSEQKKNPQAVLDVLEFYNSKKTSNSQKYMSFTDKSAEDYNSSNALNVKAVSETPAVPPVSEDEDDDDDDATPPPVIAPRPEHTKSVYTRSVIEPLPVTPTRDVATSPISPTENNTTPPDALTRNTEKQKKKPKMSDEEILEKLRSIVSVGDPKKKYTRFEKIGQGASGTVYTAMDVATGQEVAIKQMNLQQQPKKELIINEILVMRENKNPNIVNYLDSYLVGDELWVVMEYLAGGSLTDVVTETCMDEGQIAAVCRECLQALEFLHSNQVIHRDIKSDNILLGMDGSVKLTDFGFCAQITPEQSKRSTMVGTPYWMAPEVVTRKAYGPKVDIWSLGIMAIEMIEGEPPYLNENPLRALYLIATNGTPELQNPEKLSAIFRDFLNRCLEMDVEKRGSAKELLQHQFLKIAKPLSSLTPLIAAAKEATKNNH

[22] = molecular target: Serine/threonine-protein kinase PLK1 (Homo sapiens) (UniProt P53350); test: Inhibition of recombinant human full length His-tagged PLK1 expressed in baculovirus expression system at 1 uM by Z'-Lyte assay relative to control
Sequence of Serine/threonine-protein kinase PLK1 (Homo sapiens) (P53350 whole entry): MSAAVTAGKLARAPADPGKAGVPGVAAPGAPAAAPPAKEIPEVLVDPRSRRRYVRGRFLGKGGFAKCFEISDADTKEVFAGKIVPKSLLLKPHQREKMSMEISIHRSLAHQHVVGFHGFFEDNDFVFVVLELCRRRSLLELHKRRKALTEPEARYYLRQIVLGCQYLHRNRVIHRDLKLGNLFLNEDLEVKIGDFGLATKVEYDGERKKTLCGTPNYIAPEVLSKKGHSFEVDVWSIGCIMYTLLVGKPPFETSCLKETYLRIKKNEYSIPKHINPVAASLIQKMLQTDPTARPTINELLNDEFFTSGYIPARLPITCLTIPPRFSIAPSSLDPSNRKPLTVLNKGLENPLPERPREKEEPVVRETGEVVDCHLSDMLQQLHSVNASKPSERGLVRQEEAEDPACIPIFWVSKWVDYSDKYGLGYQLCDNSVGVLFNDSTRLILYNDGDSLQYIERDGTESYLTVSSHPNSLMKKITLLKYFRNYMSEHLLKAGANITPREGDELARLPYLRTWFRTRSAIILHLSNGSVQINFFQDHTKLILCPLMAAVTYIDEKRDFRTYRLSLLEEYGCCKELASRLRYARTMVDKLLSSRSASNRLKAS

[23] = system: Proto-oncogene tyrosine-protein kinase receptor Ret (Homo sapiens), P07949 [V804L]; test: Inhibition of recombinant human GST-tagged RET V804L mutant expressed in baculovirus expression system at 1 uM by Z'-Lyte assay relative to control
[24] = molecular target: STE20-like serine/threonine-protein kinase (Homo sapiens) (UniProt Q9H2G2); test: Inhibition of recombinant human full length GST-tagged SLK expressed in baculovirus expression system at 1 uM by LanthaScreen assay relative to control
[25] = molecular target: Tyrosine-protein kinase Srms (Homo sapiens) (UniProt Q9H3Y6); test: Inhibition of recombinant human full length GST-tagged SRMS expressed in baculovirus expression system at 1 uM by TR-FRET assay relative to control
[26] = AUC (0 to infinity) in ICR mouse at 5 mg/kg, po administered as single dose by LC-MS/MS analysis; type: ADME, organism-based; design: dose 5 mg/kg, route oral, time infinity; conditions: in vivo
[27] = Half life in ICR mouse at 2 mg/kg, iv administered as single dose by LC-MS/MS analysis; type: ADME, organism-based; conditions: in vivo
[28] = Tmax in CD-1 mouse plasma at 10 mg/kg, po administered as single dose by LC-MS/MS analysis; type: ADME, organism-based
[29] = AUC (0 to infinity) in CD-1 mouse brain at 10 mg/kg, po administered as single dose by LC-MS/MS analysis; type: ADME, organism-based; design: dose 10 mg/kg, time infinity, route oral; conditions: in vivo
Mus musculus = test: In vivo inhibition of CDK4/6 in nude mouse xenografted with human COLO205 cells assessed as reduction in Ser-780-phosphorylated Rb level in tumor at 100 mg/kg administered via oral gavage measured after 24 to 48 hrs by Western blot analysis; type: functional, organism-based
U-87 MG [30] = test: Antitumor activity against luciferase-fused human U87MG cells orthotopically xenografted in nude mouse assessed as tumor growth inhibition at 25 mg/kg, po qd for 4 weeks by bioluminescence imaging relative to control; type: functional, U-87MG ATCC; conditions: 672 h, read-out: TGI
U-87 MG [31] = test: Antitumor activity against luciferase-fused human U87MG cells orthotopically xenografted in nude mouse assessed as tumor growth inhibition at 50 mg/kg, po qd for 4 weeks by bioluminescence imaging relative to control; type: functional, U-87MG ATCC; conditions: 672 h, read-out: TGI

For `CC1=Nc2c(F)cc(-c3nc(Nc4ccc(C5CCN(C)CC5)cn4)ncc3F)cc2C12CCCC2` [CROZBACICLIB], which clearance [1] is on record?
The clearance was 34.9 mL/min/kg.

And the bioavailability [2]?
The bioavailability was 66%.

And the inhibition [3]?
Its inhibition is 1%.

What about the inhibition [4] of the same compound?
Its inhibition is 10%.

What about the inhibition [5] of the same compound?
Its inhibition is -9%.

And the inhibition [6]?
The inhibition was -2%.

What about the inhibition [7] of the same compound?
The inhibition was 5%.

What about the inhibition [8] of the same compound?
The inhibition was 29%.

And the inhibition [9]?
Its inhibition is 6%.

And the inhibition [10]?
Its inhibition is 2%.

And the inhibition [11]?
The inhibition was -5%.

What about the inhibition [12] of the same compound?
The inhibition was 0%.

And the inhibition [13]?
Its inhibition is 3%.

And the inhibition [14]?
Its inhibition is 2%.

What about the inhibition [15] of the same compound?
The inhibition was 25%.

What about the inhibition [16] of the same compound?
Its inhibition is 68%.

What about the inhibition [17] of the same compound?
Its inhibition is 5%.

What about the inhibition [18] of the same compound?
The inhibition was 87%.

And the inhibition [19]?
Its inhibition is 3%.

What about the inhibition [20] of the same compound?
Its inhibition is 82%.

What about the inhibition [21] of the same compound?
The inhibition was 28%.

And the inhibition [22]?
Its inhibition is 0%.

What about the inhibition [23] of the same compound?
The inhibition was 16%.

What about the inhibition [24] of the same compound?
Its inhibition is 42%.

And the inhibition [25]?
The inhibition was 6%.

And the AUC(0-inf) [26]?
Its AUC(0-inf) is 2500 ng·h/mL.

And the half-life [27]?
The half-life was 9.1 h.

What about the Tmax [28] of the same compound?
The Tmax was 2 h.

What about the AUC [29] of the same compound?
Its AUC is 37438 ng·h/g.

What about the inhibition (Mus musculus) of the same compound?
Its inhibition is “Active”.

What about the inhibition in vivo at 25 mg/kg (U-87 MG [30]) of the same compound?
Its inhibition in vivo at 25 mg/kg is 96%.

What about the inhibition in vivo at 50 mg/kg (U-87 MG [31]) of the same compound?
Its inhibition in vivo at 50 mg/kg is 99%.
